Test results taken from patent US8088812B2, “Sigma receptor inhibitors” (Laboratorios Del Dr. Esteve, S.A., priority 2006, dated 2012).

Experiments:
[1] = biological target: T1, σ1-receptor (Cavia porcellus, UniProt Q60492); assay: Sigma-1 receptor binding assay, [3H](+)-pentazocine, brain membranes; conditions: guinea pig brain membranes
T1 construct: guinea pig brains are homogenized; from tissue; host or cells: guinea pig brain membranes
Experimental: Brain membrane preparation and binding assays for the σ1-receptor are performed as described (DeHaven-Hudkins et al., 1992) with some modifications. In brief, guinea pig brains are homogenized in 10 vols. (w/v) of Tris-HCl 50 mM 0.32 M sucrose, pH 7.4, with a Kinematica Polytron PT 3000 at 15000 r.p.m. for 30 s. The homogenate is centrifuged at 1000 g for 10 min at 4° C. and the supernatants collected and centrifuged again at 48000 g for 15 min at 4° C. The pellet is resuspended in 10 volumes of Tris-HCl buffer (50 mM, pH 7.4), incubated at 37° C. for 30 min, and centrifuged at 48000 g for 20 min at 4° C. Following this, the pellet is resuspended in fresh Tris-HCl buffer (50 mM, pH 7.4) and stored on ice until use.
Each assay tube contains 10 μL of [^3H](+)-pentazocine (final concentration of 0.5 nM), 900 μL of the tissue suspension to a final assay volume of 1 mL and a final tissue concentration of approximately 30 mg tissue net weight/mL. Non-specific binding is defined by addition of a final concentration of 1 μM haloperidol. All tubes are incubated at 37° C. for 150 min before termination of the reaction by rapid filtration over Schleicher & Schuell GF 3362 glass fibre filters [previously soaked in a solution of 0.5% polyethylenimine for at least 1 h]. Filters are then washed four times with 4 mL of cold Tris-HCl buffer (50 mM, pH 7.4). Following addition of scintillation cocktail, the samples are allowed to equilibrate overnight. The amount of bound radioactivity is determined by liquid scintillation spectrometry using a Wallac Winspectral 1414 liquid scintillation counter. Protein concentrations are determined by the method of Lowry et al. (1951).

[2] = tested on: capsaicin-induced allodynia; assay: Von Frey filaments in a model of capsaicin-induced allodynia; type: in vivo; conditions: mice, percent analgesia compared to control, mechanical stimulus after capsaicin injection into paw
Experimental: This model is described in detail in the experimental part of WO 2006/010587 A1, examples 1 and 2, the description being included here by reference. Capsaicin is thereby injected into experimental animals to produce acute pain followed by allodynia.
Briefly after habituation mice were first treated with the test-compound (or not in controls). Then capsaicin (1% DMSO) is injected into their paw resulting in developing pain in the effected paw. The effected paw is then treated with a mechanical stimulus and the latency time before the paw is withdrawn is measured.
The results obtained for examples 5, 6 and 8 are shown in table (II) as percent analgesia compared to control achieved at […] 16 mg/kg i.p.

T1 sequence (Q60492 whole entry): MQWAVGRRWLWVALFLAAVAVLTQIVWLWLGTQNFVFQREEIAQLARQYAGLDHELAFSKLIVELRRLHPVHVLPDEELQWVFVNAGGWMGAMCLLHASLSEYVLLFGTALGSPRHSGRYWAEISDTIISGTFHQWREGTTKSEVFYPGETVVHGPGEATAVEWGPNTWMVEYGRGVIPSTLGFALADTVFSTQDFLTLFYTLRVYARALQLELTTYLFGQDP

SMILES	melting point	Ki [1]	Analgesia (16 mg/kg), i.p. % [2]
CC(C)(C)n1ccc(OCCN2CCCCC2)n1.O=C(O)C(=O)O [Example 2, 1-[2-(1-tert-butyl-1H-pyrazol-3-yloxy)ethyl]piperidine oxalate]	123 to 126 °C		
CCN(CC)CCOc1ccn(C(C)(C)C)n1.O=C(O)C(=O)O	96 to 98 °C		
CC(C)(C)n1ccc(OCCN2CCCC2)n1.O=C(O)C(=O)O [Example 4, 1-tert-butyl-3-[2-(pyrrolidin-1-yl)ethoxy]-1H-pyrazole oxalate]	82 to 88 °C		
CCN(CC)CCOc1ccn(C2CCCCC2)n1.O=C(O)C(=O)O [Example 7, 2-(1-cyclohexyl-1H-pyrazol-3-yloxy)-N,N-diethylethanamine oxalate]	85 to 90 °C		

Further lines, with some results ahead:

melting point	Ki [1]	SMILES	Analgesia (16 mg/kg), i.p. % [2]
105 to 110 °C	1 ± 0.3 nM	O=C(O)C(=O)O.c1cn(C2CCCCC2)nc1OCCN1CCCCC1 [Example 6, 1-(2-(1-cyclohexyl-1H-pyrazol-3-yloxy)ethyl)piperidine oxalate]	70%
135 to 140 °C	4.1 ± 0.1 nM	O=C(O)C(=O)O.c1cn(C2CCCCC2)nc1OCCN1CCOCC1 [Example 5, 4-(2-(1-cyclohexyl-1H-pyrazol-3-yloxy)ethyl)morpholine oxalate]	20%
117 to 119 °C	2.5 nM	O=C(O)C(=O)O.c1cn(C2CCCCC2)nc1OCCN1CCCC1 [Example 8, 1-Cyclohexyl-3-(2-(pyrrolidin-1-yl)ethoxy)-1H-pyrazole oxalate]	65%
122 to 128 °C	8.6 nM	O=C(O)C(=O)O.c1ccc(C2CCN(CCOc3ccn(C4CCCCC4)n3)CC2)cc1 [Example 11, 1-(2-(1-Cyclohexyl-1H-pyrazol-3-yloxy)ethyl)-4-phenylpiperidine oxalate]	
